Source: US20120295866A1, “Synthesis And Use Of Glycoside Pro-Drug Analogs” (Nutek Pharma Ltd., priority 2011, published 2012)
In brackets after ≈: the same amount, converted by molar mass. Entries after “also recorded” stand apart in the source; their conditions may differ.

Key:
rats = test: Clinical observations of rats during administration of propofol analogs in the pharmacokinetics study
Procedure: (§1) Blood samples were to be taken pre-dose, during dose and post dose at designated intervals, with the blood quickly processed and stored at −70° C. until analysis.
(§2) Formulations were prepared on the morning of the dosing day and each was passed through a 0.22 μm filter prior to being administered to animals. A standard dose of 0.168 mmol/Kg per analog was administered to each of the rats. […] Analog stability in the formulations was verified by preparing each formulation and harvesting 200 μL aliquots at 0, 1, 2 and 8 hr while standing at room temperature. After harvesting, each sample was immediately frozen in dry ice until analysis; concentrations of test compounds in the samples were examined by HPLC-UV.
(§3) The animals were surgically prepared with indwelling cannula, double cannulation in carotid artery and jugular vein for i.v. infusion. The anesthetic pentobarbital was used during the surgery, and the animals were allowed to recover 3-5 days after surgery before the formulation was dosed. The dose formulation was administered intravenously via the jugular vein cannula. The 16.8 μmol/mL formulation was administered i.v. at a rate of 1 mL/Kg/min for 10 min.

[1] = Pharmacokinetics: concentration of prodrug (or propofol) in rat plasma after intravenous infusion, LC/MS/MS; details: for Mean concentration of prodrug and propofol in rat plasma after intravenous infusion administration: analyte = administered compound; for AUC(0-inf) / AUC(0-t) / Cmax / MRT inf / Tmax / half-life / Vd / clearance: male, Sprague-Dawley, rat, plasma, iv, 0.168 mmol/Kg
Procedure: as §1, §2, §3
(§4) Approximately 0.20 mL blood was collected at each designated time point from carotid artery via a catheter. A total of 12 plasma samples were taken from each animal: 1 pre-dose; 2 during the dose (5 into the 10 min infusion and one just prior termination of the 10 min infusion) and 9 post-infusion at 2, 5, 15, 30 min and 1, 2, 3, 4, and 6 hr post-dose. All blood samples were transferred into plastic microcentrifuge tubes containing 5 μL of K2-EDTA (0.5M) as anti-coagulant and placed on ice until processed for plasma. Blood samples were processed for plasma by centrifugation at approximately 5° C. Plasma samples were then stored in 1.5 mL tubes, quick frozen over dry ice and kept at −70±10° C. until LC/MSMS analysis.
(§5) For each, a minimum of 6 standard point curve runs in duplicates, and minimum of 5 standards were back calculated to within ±20% of their nominal concentrations. The LLOQ of each test article in plasma was established and 6 QC samples were included in assay runs of samples to ensure assay performance.
(§6) Plasma concentration versus time data was analyzed by non-compartmental approaches using the WinNonlin software program (version 5.2, Pharsight, Mountain View, Calif.) and the pharmacokinetic parameters T½, CL, Vss, AUC(0-t), AUC(0-inf), MRT, and graphs of plasma concentration versus time calculated for each.

[2] = Pharmacokinetics: concentration of propofol in rat plasma after intravenous infusion of each pro-drug, LC/MS/MS; details: for Mean Concentration of Propofol in Rat Plasma After Intravenous Administration: analyte propofol from the administered compound; for pro-drug efficiency, release of propofol: releasing the propofol in a matter of minutes after infusion, rat
Procedure: as §1, §2, §3, §4, §5, §6

[3] = Solubility determination of propofol analogs in D2O by 1H NMR with DSS internal standard; details: for solubility: D2O, water, thermodynamic from solid
Procedure: Thus the soapy-like solutions obtained were diluted until opalescent and diluted further until the opalescence visually disappeared.

[4] = time post-10 min i.v. infusion, 0.168 mmol/Kg

Row | SMILES | Clinical Observation: recovered at (rats; [4]) | Mean concentration of prodrug and propofol in rat plasma after intravenous infusion administration ([1]; Time 0 h (pre-dose)) | Mean concentration of prodrug and propofol in rat plasma after intravenous infusion administration ([1]; Time 0.25 h) | Mean concentration of prodrug and propofol in rat plasma after intravenous infusion administration ([1]; Time 0.417 h) | Mean concentration of prodrug and propofol in rat plasma after intravenous infusion administration ([1]; Time 0.667 h) | Mean concentration of prodrug and propofol in rat plasma after intravenous infusion administration ([1]; Time 1.166 h) | Mean concentration of prodrug and propofol in rat plasma after intravenous infusion administration ([1]; Time 2.166 h) | Mean concentration of prodrug and propofol in rat plasma after intravenous infusion administration ([1]; Time 3.166 h) | Mean concentration of prodrug and propofol in rat plasma after intravenous infusion administration ([1]; Time 4.166 h) | Mean concentration of prodrug and propofol in rat plasma after intravenous infusion administration ([1]; Time 6.166 h) | Mean Concentration of Propofol in Rat Plasma After Intravenous Administration ([2]; Time 0 h (pre-dose)) | pro-drug efficiency, release of propofol [2] | solubility [3] [mM] | AUC(0-inf) [1] [µM·h] | AUC(0-t) [1] [µM·h] | Cmax [1] [µM] | MRT inf [1] [min] | Tmax [1] [min] | half-life [1] [min] | Vd [1] [L/kg] | other results
1 | CC(C)c1cccc(C(C)C)c1OC(=O)OCCO[C@@H]1O[C@H](CO)[C@@H](O)[C@H](O)[C@H]1O [Compound 9] | recovered at about 30 min | BQL | BQL | BQL | BQL | BQL | BQL | BQL | BQL | BQL | BQL | very efficient pro-drugs | 9.4 (≈ 4030 µg/mL) | – | – | – | – | – | – | – | Mean concentration of prodrug and propofol in rat plasma after intravenous infusion administration ([1]; Time 0.083 h (during 10 min infusion)): BQL; Mean concentration of prodrug and propofol in rat plasma after intravenous infusion administration ([1]; Time 0.167 h (end of 10 min infusion)): BQL; Mean concentration of prodrug and propofol in rat plasma after intravenous infusion administration ([1]; Time 0.2 h): BQL
2 | CC(C)c1cccc(C(C)C)c1OC(=O)OCCCO[C@@H]1O[C@H](CO)[C@@H](O)[C@H](O)[C@H]1O [Compound 12] | recovered at about 30 min | BQL | BQL | BQL | BQL | BQL | BQL | BQL | BQL | BQL | BQL | very efficient pro-drugs | 5.5 (≈ 2430 µg/mL) | 0.00122 | 0.000773 | 0.00678 | 6 | 10.2 | 3.6 | – | Mean concentration of prodrug and propofol in rat plasma after intravenous infusion administration ([1]; Time 0.2 h): BQL; Mean Concentration of Propofol in Rat Plasma After Intravenous Administration ([2]; Time 4.166 h): BQL; Mean Concentration of Propofol in Rat Plasma After Intravenous Administration ([2]; Time 6.166 h): BQL
3 | CC(C)c1cccc(C(C)C)c1OC(=O)NCCO[C@@H]1O[C@H](CO)[C@@H](O)[C@H](O)[C@H]1O [Compound 17] | – | BQL | – | – | – | – | – | – | – | – | BQL | – | 1.6 (≈ 684 µg/mL) | 71.8 | 61.6 | 313 | 16.6 | 10.2 | 26.2 | 0.657 | Clinical Observation (adverse findings, individual rats) (rats; times post-10 min infusion, vehicle 10% Tween80, cloudy): died at 15 min; also recorded: died at 1.5 h from hematuria; clearance [1]: 2.35 L/h/kg; Mean Concentration of Propofol in Rat Plasma After Intravenous Administration ([2]; Time 2.166 h): BQL; Mean Concentration of Propofol in Rat Plasma After Intravenous Administration ([2]; Time 3.166 h): BQL; Mean Concentration of Propofol in Rat Plasma After Intravenous Administration ([2]; Time 4.166 h): BQL; Mean Concentration of Propofol in Rat Plasma After Intravenous Administration ([2]; Time 6.166 h): BQL; water solubility (in words) ([3]; reason for cosolvent in the dose formulation): poor water solubility
4 | CC(C)c1cccc(C(C)C)c1OC(=O)OCCO[C@@H]1O[C@H](CO)C(O[C@H]2O[C@H](CO)[C@@H](O)[C@H](O)[C@H]2O)[C@H](O)[C@H]1O (stereo partly drawn) [Compound 24] | recovered at about 30 min | BQL | – | – | – | – | BQL | – | BQL | BQL | BQL | very efficient pro-drugs | > 20 | 0.791 | 0.786 | 8.1 | 12.4 | 8.4 | 53.2 | 120 | clearance [1]: 348 L/h/kg
5 | CC(C)c1cccc(C(C)C)c1OC(=O)OCCCO[C@@H]1O[C@H](CO)C(O[C@H]2O[C@H](CO)[C@@H](O)[C@H](O)[C@H]2O)[C@H](O)[C@H]1O (stereo partly drawn) [Compound 25, 1-((2′,6′-diisopropylphenoxy)carbonyloxy)propyl-β-D-maltose] | recovered at about 35 min | BQL | – | – | – | – | – | BQL | BQL | BQL | BQL | very efficient pro-drugs | > 20 | 8.57 | 8.57 | 68.4 | 4.62 | 10.2 | 15.2 | 1.51 | clearance [1]: 20.2 L/h/kg
6 | CC(C)c1cccc(C(C)C)c1OC(=O)OCCO[C@H]1O[C@H](CO)[C@@H](O)[C@H](O)[C@H]1O [Compound 32] | recovered at about 26 min | BQL | BQL | BQL | BQL | BQL | BQL | BQL | BQL | BQL | BQL | very efficient pro-drugs | 13.3 (≈ 5700 µg/mL) | – | 0.000657 | 0.00538 | – | 8.4 | – | – | Clinical Observation: Rats soporous at (rats; [4]): Rats soporous at about 3 min and
7 | CC(C)c1cccc(C(C)C)c1OC(=O)OCCCO[C@H]1O[C@H](CO)[C@@H](O)[C@H](O)[C@H]1O [Compound 33] | recovered at about 30 min | BQL | BQL | BQL | BQL | BQL | BQL | BQL | BQL | BQL | BQL | very efficient pro-drugs | 5.7 (≈ 2520 µg/mL) | – | 0.00304 | 0.0231 | – | 10.2 | – | – | Clinical Observation: Rats soporous at (rats; [4]): Rats soporous at about 3 min and; Mean Concentration of Propofol in Rat Plasma After Intravenous Administration ([2]; Time 4.166 h): BQL; Mean Concentration of Propofol in Rat Plasma After Intravenous Administration ([2]; Time 6.166 h): BQL
8 | CC(C)c1cccc(C(C)C)c1O [Propofol, 2,6-diisopropylphenol, reference compound] | – | – | – | – | – | – | – | – | – | – | BQL | – | 1.1 (≈ 196 µg/mL) | 12.6 | 10.6 | 31.9 | 209 | 10.8 | 383 | 61.2 | Clinical Observation: Rats soporous at (rats; [4]): Rats soporous at about 4 min and; Clinical Observation: recovered at (rats; time post-10 min infusion, 5% cremophor vehicle): recovered at about 1.5 hr; clearance [1]: 15.9 L/h/kg
